Tests used:
[1] = test system: NRK; assay: Cytotoxicity against rat NRK cells assessed as reduction in cell viability incubated for 24 hrs under 2% O2 condition by WST-1 assay; format: cell-based
[2] = test system: NRK; assay: Cytotoxicity against rat NRK cells assessed as reduction in cell viability incubated for 24 hrs under 19% O2 condition by WST-1 assay; format: cell-based
[3] = test system: MOLM-13; assay: Cytotoxicity against human MOLM13 cells assessed as reduction in cell viability incubated for 24 hrs under 2% O2 condition by WST-1 assay; format: functional, cell-based; details: MOLM-13, 24 h
[4] = test system: MOLM-13; assay: Cytotoxicity against human MOLM13 cells assessed as reduction in cell viability incubated for 24 hrs under 19% O2 condition by WST-1 assay; format: functional, cell-based; details: MOLM-13, 24 h
[5] = test system: H9c2; assay: Cytotoxicity against rat H9c2 cells assessed as reduction in cell viability incubated for 24 hrs under 19% O2 condition by WST-1 assay; format: cell-based; details: H9c2, 24 h
[6] = Selectivity index, ratio of EC50 for rat NRK cells to EC50 for human MOLM13 cells; format: toxicity; details: NRK cells versus MOLM13 cells, read-out: Ratio EC50
[7] = Selectivity index, ratio of EC50 for rat H9c2 cells to EC50 for human MOLM13 cells; format: toxicity; details: H9c2 cells versus MOLM13 cells, read-out: Ratio EC50
[8] = Selectivity index, ratio of EC50 for rat NRK cells to EC50 for human MOLM13 cells under 19% O2 condition; format: toxicity; details: NRK cells versus MOLM13 cells, read-out: Ratio EC50
[9] = Selectivity index, ratio of EC50 for rat NRK cells to EC50 for human MOLM13 cells under 2% O2 condition; format: toxicity; details: NRK cells versus MOLM13 cells, read-out: Ratio EC50
[10] = Solubility of the compound in DMSO; format: physicochemical
[11] = test system: NRK; assay: Cytotoxicity against rat NRK cells assessed as reduction in cell viability incubated for 24 hrs under 19% O2 condition by Hoechst 33342 staining based microscopic analysis
[12] = test system: NRK; assay: Cytotoxicity against rat NRK cells assessed as reduction in cell viability incubated for 24 hrs under 2% O2 condition by Hoechst 33342 staining based microscopic analysis
[13] = test system: H9c2; assay: Cytotoxicity against rat H9c2 cells assessed as reduction in cell viability incubated for 24 hrs under 19% O2 condition by Hoechst 33342 staining based microscopic analysis; details: H9c2, 24 h

| Structure (SMILES) | EC50 [1] | EC50 [2] | EC50 [3] | EC50 [4] | EC50 [5] | selectivity ratio [6] | selectivity ratio [7] | selectivity ratio [8] | selectivity ratio [9] | solubility [10] | EC50 [11] | EC50 [12] | EC50 [13] |
| --- | --- | --- | --- | --- | --- | --- | --- | --- | --- | --- | --- | --- | --- |
| CC(C)(C)OC(=O)COc1cccc2c1[n+]([O-])c1ccccc1[n+]2[O-] | 25 µM | 26 µM | 1.9 µM | 2.2 µM | 20 µM | – | – | – | – | – | – | – | – |
| O=C(Oc1cccc2c1[n+]([O-])c1ccccc1[n+]2[O-])N1CCCC1 | 21 µM | 18 µM | 1.2 µM | 1.5 µM | 13 µM | – | – | – | – | – | – | – | – |
| CCOC(=O)Oc1cccc2c1[n+]([O-])c1cccc(O)c1[n+]2[O-] | – | – | 66 µM | 50 µM | > 100 µM | – | – | – | – | – | – | – | – |
| COc1cccc2c1[n+]([O-])c1cccc(OC(=O)N3CCN(C)CC3)c1[n+]2[O-] | 39 µM | 26 µM | 0.98 µM | 1 µM | 26 µM | > 15 | > 15 | – | – | – | – | – | – |
| Cc1cc2c(cc1C)[n+]([O-])c1c(OC(=O)N3CCN(C)CC3)cccc1[n+]2[O-] | 13 µM | 12 µM | 0.54 µM | 0.63 µM | 9.4 µM | – | – | – | – | – | – | – | – |
| CN(C)C(=O)Oc1cccc2c1[n+]([O-])c1cccc(O)c1[n+]2[O-] | 62 µM | 49 µM | 0.7 µM | 0.89 µM | 64 µM | > 15 | > 15 | – | – | – | – | – | – |
| CCOC(=O)Oc1cccc2c1[n+]([O-])c1cccc(OC(=O)OCC)c1[n+]2[O-] | > 25 µM | > 25 µM | 4 µM | 6.1 µM | > 25 µM | – | – | – | – | – | – | – | – |
| Cc1cc2c(cc1C)[n+]([O-])c1c(O)cccc1[n+]2[O-] | > 50 µM | > 50 µM | 2.3 µM | 2.8 µM | > 50 µM | – | – | – | – | – | – | – | – |
| CN1CCN(C(=O)Oc2cccc3c2[n+]([O-])c2cc(Cl)c(Cl)cc2[n+]3[O-])CC1 | 15 µM | 11 µM | 0.32 µM | 0.34 µM | 3.2 µM | – | – | > 30 | 45 | – | – | – | – |
| CN(C)C(=O)Oc1cccc2c1[n+]([O-])c1ccccc1[n+]2[O-] | 25 µM | 19 µM | 2.1 µM | 1.3 µM | 16 µM | – | – | – | – | – | – | – | – |
| [O-][n+]1c2cccc(O)c2[n+]([O-])c2cccc(O)c21 | > 50 µM | > 50 µM | – | – | > 50 µM | – | – | – | – | – | – | – | – |
| CC(C)(C)C(=O)Oc1cccc2c1[n+]([O-])c1cccc(OC(=O)C(C)(C)C)c1[n+]2[O-] | – | – | 8.9 µM | 11 µM | > 25 µM | – | – | – | – | – | – | – | – |
| COc1cccc2c1[n+]([O-])c1cccc(O)c1[n+]2[O-] | 76 µM | 77 µM | – | – | 46 µM | – | – | – | – | – | – | – | – |
| [O-][n+]1c2cc3ccccc3cc2[n+]([O-])c2c(O)cccc21 | – | – | > 10 µM | – | – | – | – | – | – | Insoluble | – | – | – |
| Nc1n[n+]([O-])c2ccccc2[n+]1[O-] [TIRAPAZAMINE] | – | – | – | – | – | – | – | – | – | – | > 100 µM | 35 µM | > 100 µM |
| CCOC(=O)COc1cccc2c1[n+]([O-])c1cc(Cl)c(Cl)cc1[n+]2[O-] | 4.7 µM | 3.1 µM | 0.38 µM | 0.41 µM | 1.3 µM | – | – | – | – | – | – | – | – |
| CCOC(=O)COc1cccc2c1[n+]([O-])c1cc(Br)c(Br)cc1[n+]2[O-] | 9.7 µM | 10 µM | 1.6 µM | 2.4 µM | 3.3 µM | – | – | – | – | – | – | – | – |
| CCN(CC)C(=O)COc1cccc2c1[n+]([O-])c1ccccc1[n+]2[O-] | 16 µM | 13 µM | 1.4 µM | 1.2 µM | 23 µM | – | – | – | – | – | – | – | – |

| Structure (SMILES) | EC50 [1] | EC50 [2] | EC50 [3] | EC50 [4] | EC50 [5] | selectivity ratio [6] | selectivity ratio [7] | selectivity ratio [8] | selectivity ratio [9] | solubility [10] | EC50 [11] | EC50 [12] | EC50 [13] |
| --- | --- | --- | --- | --- | --- | --- | --- | --- | --- | --- | --- | --- | --- |
| [O-][n+]1c2ccccc2[n+]([O-])c2c(O)cccc21 | > 100 µM | 79 µM | 12 µM | 11 µM | > 100 µM | – | – | – | – | – | – | – | – |
| Cc1c(C)[n+]([O-])c2c(O)cccc2[n+]1[O-] | – | – | > 200 µM | > 200 µM | – | – | – | – | – | – | – | – | – |
| CCOC(=O)COc1cccc2c1[n+]([O-])c1cccc(O)c1[n+]2[O-] | 18 µM | 12 µM | – | – | 15 µM | – | – | – | – | – | – | – | – |
| Cc1c(C)[n+]([O-])c2c(OC(=O)N3CCOCC3)cccc2[n+]1[O-] | – | – | > 200 µM | > 200 µM | – | – | – | – | – | – | – | – | – |
| O=C(Oc1cccc2c1[n+]([O-])c1cccc(O)c1[n+]2[O-])N1CCCC1 | 15 µM | 9.6 µM | 0.79 µM | 0.86 µM | 12 µM | > 15 | > 15 | – | – | – | – | – | – |
| CN1CCN(C(=O)Oc2cccc3c2[n+]([O-])c2cc4ccccc4cc2[n+]3[O-])CC1 | 7.5 µM | 2 µM | 1.8 µM | 2.8 µM | 2.3 µM | – | – | – | – | – | – | – | – |
| CN1CCN(C(=O)Oc2cccc3c2[n+]([O-])c2cccc(O)c2[n+]3[O-])CC1 | 59 µM | 53 µM | 1.4 µM | 1.5 µM | 100 µM | > 15 | > 15 | – | – | – | – | – | – |
| CCCCC(=O)Oc1cccc2c1[n+]([O-])c1cccc(OC(=O)CCCC)c1[n+]2[O-] | – | – | 22 µM | 36 µM | > 25 µM | – | – | – | – | – | – | – | – |
| COc1cccc2c1[n+]([O-])c1cccc(OC(=O)N(C)C)c1[n+]2[O-] | 29 µM | 22 µM | 1.7 µM | 1.9 µM | 35 µM | > 15 | > 15 | – | – | – | – | – | – |
| Cc1c(C)[n+]([O-])c2c(OC(=O)N3CCN(C)CC3)cccc2[n+]1[O-] | – | – | > 200 µM | > 200 µM | – | – | – | – | – | – | – | – | – |
| CN1CCN(C(=O)Oc2cccc3c2[n+]([O-])c2ccccc2[n+]3[O-])CC1 | 37 µM | 25 µM | 1.9 µM | 1.5 µM | 36 µM | – | – | – | – | – | – | – | – |
| CCN(CC)C(=O)COc1cccc2c1[n+]([O-])c1cc(C)c(C)cc1[n+]2[O-] | 52 µM | 21 µM | 3.4 µM | 1.8 µM | 41 µM | – | – | – | – | – | – | – | – |
| Cc1cc2c(cc1C)[n+]([O-])c1c(OC(=O)N3CCCC3)cccc1[n+]2[O-] | 8.9 µM | 6.6 µM | 0.78 µM | 1.5 µM | 8.7 µM | – | – | – | – | – | – | – | – |
| COc1cccc2c1[n+]([O-])c1cccc(OC(=O)N3CCCC3)c1[n+]2[O-] | 35 µM | 32 µM | 1.8 µM | 2 µM | 35 µM | > 15 | > 15 | – | – | – | – | – | – |
| CN1CCN(C(=O)Oc2cccc3c2[n+]([O-])c2cc(Br)c(Br)cc2[n+]3[O-])CC1 | 7.6 µM | 6.2 µM | 0.23 µM | 0.41 µM | 2.2 µM | – | – | – | – | – | – | – | – |
| CCOC(=O)COc1cccc2c1[n+]([O-])c1cc(C)c(C)cc1[n+]2[O-] | > 100 µM | – | 6.3 µM | 8.3 µM | > 100 µM | – | – | – | – | – | – | – | – |
| CCOC(=O)COc1cccc2c1[n+]([O-])c1ccccc1[n+]2[O-] | 25 µM | 26 µM | 1.7 µM | 1.5 µM | 20 µM | – | – | – | – | – | – | – | – |

Reference: ChEMBL document CHEMBL4732033, “New prodrugs and analogs of the phenazine 5,10-dioxide natural products iodinin and myxin promote selective cytotoxicity towards human acute myeloid leukemia cells” (RSC Med Chem, 2021)
